In US11773076B2, “Crystalline forms of a somatostatin modulator” (Crinetics Pharmaceuticals, Inc., priority 2021, dated 2023):
“Also recorded” adds a separate entry of the source. One block for each compound: values may come before it.

Experiments:
SSTR2 = SSTR2 (Homo sapiens, UniProt P30874); assay: Selectivity for SSTR5 over SSTR2; format: cell-based
SSTR5 = SSTR5 (Homo sapiens, UniProt P35346); assay: SSTR5 agonist potency; format: cell-based
[1] = Thermal stability of crystalline Pattern A (DSC cycling, then XRPD); format: physicochemical
Description: Two samples of Crystalline Pattern A were prepared and cycled in the DSC and then analyzed by XRPD.
The first sample of Pattern A (9.4 mg) was heated from 30° C. to 150° C. and then cooled back to 30° C.
The second sample of Pattern A (14.4 mg) was heated from 30° C. to 118° C. and then cooled back to 30° C. The sample recovered after the DSC experiment appeared as a light-amber pellet that was easily pressed into a powder on the XRPD plate.

[2] = Thermodynamic stability: one-week slurry stability of crystalline Pattern A (XRPD); format: physicochemical
Description: One-week slurry stability studies were performed on crystalline Pattern A in five solvents and solvent systems at room temperature (20-24° C.) and at 10° C. About 25 mg of Compound 1 was weighed into 2 mL vials and the solvent was added to each vial at room temperature with stirring. The solvents and solvent systems used in the experiments were: IPA:water (1:1 vol), THF:heptane (1:2 vol), ACN:heptane (1:2 vol), MIBK:heptane (1:2 vol), and IPAc.
For the IPA:water (1:1 vol) samples, 10 vol. of IPA:water (1:1 vol) was added, whereas 7 vol. were initially added for the other solvent systems. One set of vials was left to stir at room temperature and the other set was transferred to a cold stir plate at 10° C. After 5 days, samples that remained in solutions were seeded with Pattern A (0.5-1 mg) and left to stir for one week.

[3] = Dynamic Vapor Sorption (DVS); format: physicochemical
Description: Dynamic Vapor Sorption (DVS) was performed using a DVS Intrinsic 1. The sample (10-15 mg) was loaded into a sample pan, suspended from a microbalance and exposed to a humidified stream of nitrogen gas. The sample was held for a minimum of 5 min at each level and only progressed to the next humidity level if there was <0.002% change in weight between measurements (interval: 60 seconds) or 240 min had elapsed. The following program was used: • (1) Equilibration at 50% RH • (2) 50% to 2% (50%, 40%, 30%, 20%, 10% and 2%) • (3) 2% to 95% (2%, 10%, 20%, 30%, 40%, 50%, 60%, 70%, 80%, 90%, 95%) • (4) 95% to 2% (95%, 80%, 70%, 60%, 50%, 40%, 30%, 20%, 10%, 2%) • (5) 2% to 50% (2%, 10%, 20%, 30%, 40%, 50%)

[4] = Stability of solid state forms on humidity exposure (static storage, XRPD re-analysis); format: physicochemical; conditions: 40° C./75% RH for 7 days
Description: Samples were assessed for stability under static storage conditions of 40° C./75% RH for 7 days. The samples were then re-analyzed by XRPD.

[5] = Dry and solvent drop milling, XRPD after milling; format: physicochemical
Description: Dry and solvent drop milling was done using a small Wig-L-Bug ball mill with ¼″ stainless steel ball as milling media. About 25 mg of crystalline Pattern A of Compound 1 was weighed into a milling capsule and one volume of solvent (solvent drop) was added. The milling was carried out at 3,800 rpm in three steps of 30 s each. The solids were recovered after milling and analyzed by XRPD.

[6] = Stability of crystalline patterns on drying (XRPD); format: physicochemical; conditions: for XRPD after drying on the benchtop: 2 days
Description: Samples of amorphous Compound 1 (either 30 mg/mL or 60 mg/mL) were dissolved in DCM and were allowed to evaporate either at room temperature or 45° C. After stirring for about 40 min, the resulting slurries were filtered and analyzed by XRPD. Pattern B was obtained for the wet cakes of recovered solids. Pattern B changed to C after drying under static vacuum at 50° C. overnight.
In a separate experiment, about 71 mg of amorphous Compound 1 was weighed into a 4 mL vial and 10 vol. (710 μL) of DCM was added at room temperature. After stirring for 5 min, a thin slurry formed. XRPD analysis of a sample taken from the slurry after 1 h confirmed Pattern B. The vial was then transferred to a fridge at 5° C. for ˜3 h and then to a freezer at −20° C. overnight. Small amount of solid settled to the bottom of the vial after cooling at −20° C., the yield was very low, about 6% w/w. XRPD confirmed Pattern B. Pattern B was left to dry on the benchtop at room temperature for 2 days. XRPD analysis on the sample after 2 days confirmed that Pattern B was stable. Thermal analysis on a small sample (0.7 mg) of Pattern B was performed by DSC.
A sample of 48.9 mg of amorphous Compound 1 and 3 vol. (˜150 μL) of MIBK:heptane was prepared at 45° C. A small amount of gummy solid formed after addition of the solvent system. The vial was vortexed and sonicated few times to break the gum and a thin slurry was obtained after 5 min of stirring. The sample was left to stir at 45° C. for about 5 h and then transferred to a stir plate at room temperature. After stirring overnight at room temperature, the sample was filtered and the solid was collected for XRPD analysis. The yield was low, ˜7% w/w.
Thermal analysis on a small sample of Pattern D was performed by DSC.

SSTR2, sequence (P30874 whole entry): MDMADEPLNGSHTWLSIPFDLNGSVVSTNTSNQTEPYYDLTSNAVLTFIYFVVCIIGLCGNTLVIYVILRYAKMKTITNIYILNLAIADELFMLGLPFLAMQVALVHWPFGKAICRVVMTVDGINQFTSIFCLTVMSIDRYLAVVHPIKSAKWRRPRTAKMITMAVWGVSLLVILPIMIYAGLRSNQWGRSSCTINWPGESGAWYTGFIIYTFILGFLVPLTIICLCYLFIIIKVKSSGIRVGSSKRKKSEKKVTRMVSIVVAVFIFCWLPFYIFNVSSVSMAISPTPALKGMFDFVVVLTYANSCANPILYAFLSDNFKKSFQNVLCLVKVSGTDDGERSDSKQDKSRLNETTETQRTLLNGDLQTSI
SSTR5, sequence (P35346 whole entry): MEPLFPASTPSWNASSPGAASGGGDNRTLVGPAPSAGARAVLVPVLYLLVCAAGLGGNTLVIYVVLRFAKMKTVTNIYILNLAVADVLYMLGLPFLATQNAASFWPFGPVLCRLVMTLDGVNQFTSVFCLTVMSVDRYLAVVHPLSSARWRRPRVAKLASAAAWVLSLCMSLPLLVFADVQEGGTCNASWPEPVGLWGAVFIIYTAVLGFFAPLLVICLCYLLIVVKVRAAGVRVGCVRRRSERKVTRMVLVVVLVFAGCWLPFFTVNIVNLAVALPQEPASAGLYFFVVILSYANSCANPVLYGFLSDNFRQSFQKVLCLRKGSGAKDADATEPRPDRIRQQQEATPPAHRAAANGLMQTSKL

- selectivity for SSTR5 over SSTR2 (SSTR2): > 500 fold
- EC50 (SSTR5): < 1 nM
Structure (SMILES): C[C@H](NC(=O)c1cnc(C#N)c(-c2cc(F)cc(F)c2)c1N1CC[C@H](N)C1)C(F)(F)F [Compound 1, 4-[(3S)-3-aminopyrrolidin-1-yl]-6-cyano-5-(3,5-difluorophenyl)-N-[(2S)-1,1,1-trifluoropropan-2-yl]pyridine-3-carboxamide]

- XRPD after DSC thermal cycling ([1]; heated from 30° C. to 118° C. and cooled back to 30° C.): stable after the DSC treatment
- XRPD after DSC thermal cycling ([1]; heated from 30° C. to 150° C. and cooled back to 30° C.): amorphous pattern
- XRPD pattern after one-week slurry ([2]; MIBK:heptane (1:2 vol) at 10° C.): Pattern B
- XRPD pattern after one-week slurry ([2]; remaining six analysable samples: IPA:water (1:1), THF:heptane (1:2), IPAc, room temperature and 10° C.): Pattern A
- total mass change between 2 and 95% RH ([3]; DVS, 2 to 95% RH): 0.7%
- mass gain from 20 to 75% RH ([3]; DVS, 20 to 75% RH): 0.37%
- mass loss from 50 to 2% RH ([3]; DVS, 50 to 2% RH): 0.2%
- XRPD pattern after DVS analysis ([3]; sample measured by DVS, 2-95% RH): unchanged after DVS analysis
- XRPD after static storage [4]: no change in the XRPD
- crystallinity (XRPD) after solvent milling ([5]; solvent drop milling in IPAc, water, and MIBK): remained stable
Structure (SMILES): C[C@H](NC(=O)c1cnc(C#N)c(-c2cc(F)cc(F)c2)c1N1CC[C@H](N)C1)C(F)(F)F [Pattern A, 4-[(3S)-3-aminopyrrolidin-1-yl]-6-cyano-5-(3,5-difluorophenyl)-N-[(2S)-1,1,1-trifluoropropan-2-yl]pyridine-3-carboxamide]
- XRPD pattern after one-week slurry ([2]; MIBK:heptane (1:2 vol) at room temperature): Pattern A+trace of a new pattern, Pattern D
- crystallinity (XRPD) after dry milling ([5]; dry milling, 3,800 rpm, three steps of 30 s): lost after dry milling resulting in amorphous material

- XRPD after drying on the benchtop ([6]; room temperature): stable
Structure (SMILES): C[C@H](NC(=O)c1cnc(C#N)c(-c2cc(F)cc(F)c2)c1N1CC[C@H](N)C1)C(F)(F)F [Pattern B, 4-[(3S)-3-aminopyrrolidin-1-yl]-6-cyano-5-(3,5-difluorophenyl)-N-[(2S)-1,1,1-trifluoropropan-2-yl]pyridine-3-carboxamide]
- XRPD after drying under vacuum at 50° C. ([6]; vacuum, 50° C.): changed to C; also recorded: converted to Pattern C

- XRPD after drying under active vacuum at room temperature ([6]; overnight, active vacuum, room temperature): converted to C
- XRPD after drying on the benchtop ([6]; room temperature): remained stable
Structure (SMILES): C[C@H](NC(=O)c1cnc(C#N)c(-c2cc(F)cc(F)c2)c1N1CC[C@H](N)C1)C(F)(F)F [Pattern D, 4-[(3S)-3-aminopyrrolidin-1-yl]-6-cyano-5-(3,5-difluorophenyl)-N-[(2S)-1,1,1-trifluoropropan-2-yl]pyridine-3-carboxamide]
